Converted amounts (≈) assume the structure as drawn. The source made the active and inactive calls. No cut-off for these calls is given here.
How the values were obtained:
[1] = Aqueous solubility of compound incubated for 24 hrs by miniaturized shake flask based HPLC analysis; format: physicochemical; details: buffer
[2] = target: Programmed cell death protein 1/Programmed cell death 1 ligand 1 (Homo sapiens, UniProt Q9NZQ7); test: Inhibition of PD-1/PD-L1 (unknown origin) protein-protein interaction by HTRF assay; format: protein-complex assay
Histone deacetylase 1 = Histone deacetylase 1 (Homo sapiens, UniProt Q13547); test: Inhibition of recombinant full-length human HDAC1 (1 to 482 residues) extracted from baculovirus expression system using Ac-Leu-Gly-Lys (Ac)-AMC as substrate preincubated for 5 mins followed by substrate addition and measured after 30 mins by fluorescence microplate reader analysis
Histone deacetylase 7 = target: T1, Histone deacetylase 7 (Homo sapiens, UniProt Q8WUI4); test: Inhibition of N-terminal GST-tagged recombinant human HDAC7 (501 to 952 residues) extracted from baculovirus expression system using Ac-Leu-Gly-Lys (Tfa)-AMC as substrate preincubated for 5 mins followed by substrate addition and measured after 30 mins by fluorescence microplate reader analysis
T1 sequence (Q8WUI4 whole entry): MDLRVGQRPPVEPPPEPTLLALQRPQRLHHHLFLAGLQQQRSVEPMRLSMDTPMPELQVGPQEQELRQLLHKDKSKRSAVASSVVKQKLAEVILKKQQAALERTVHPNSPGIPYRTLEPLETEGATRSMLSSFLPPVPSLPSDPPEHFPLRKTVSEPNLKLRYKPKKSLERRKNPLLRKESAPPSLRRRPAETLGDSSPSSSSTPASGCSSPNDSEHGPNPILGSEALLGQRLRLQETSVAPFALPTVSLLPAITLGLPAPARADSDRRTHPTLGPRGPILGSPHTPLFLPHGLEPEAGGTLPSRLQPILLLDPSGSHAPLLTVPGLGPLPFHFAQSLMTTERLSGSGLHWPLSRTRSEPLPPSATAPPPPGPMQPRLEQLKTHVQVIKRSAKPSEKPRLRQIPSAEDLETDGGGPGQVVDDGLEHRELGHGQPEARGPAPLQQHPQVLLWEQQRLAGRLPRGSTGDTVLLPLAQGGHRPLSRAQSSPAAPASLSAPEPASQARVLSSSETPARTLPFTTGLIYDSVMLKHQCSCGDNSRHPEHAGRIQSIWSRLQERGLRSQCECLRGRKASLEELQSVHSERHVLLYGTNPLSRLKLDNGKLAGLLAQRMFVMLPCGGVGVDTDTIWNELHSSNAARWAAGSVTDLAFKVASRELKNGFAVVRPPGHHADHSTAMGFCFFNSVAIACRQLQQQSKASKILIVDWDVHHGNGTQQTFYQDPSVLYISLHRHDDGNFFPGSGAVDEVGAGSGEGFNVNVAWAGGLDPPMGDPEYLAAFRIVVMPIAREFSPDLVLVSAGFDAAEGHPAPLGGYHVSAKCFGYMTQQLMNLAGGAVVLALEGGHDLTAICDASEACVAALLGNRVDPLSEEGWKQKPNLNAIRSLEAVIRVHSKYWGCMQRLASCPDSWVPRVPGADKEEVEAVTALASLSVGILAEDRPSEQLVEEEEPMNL

Histone deacetylase 8 = target: T2, Histone deacetylase 8 (Homo sapiens, UniProt Q9BY41); test: Inhibition of C-terminal His-tagged recombinant full length human HDAC8 extracted from baculovirus infected Sf9 insect cells preincubated for 5 mins followed by substrate addition and measured after 30 mins by fluorescence microplate reader analysis
T2 sequence (Q9BY41 whole entry): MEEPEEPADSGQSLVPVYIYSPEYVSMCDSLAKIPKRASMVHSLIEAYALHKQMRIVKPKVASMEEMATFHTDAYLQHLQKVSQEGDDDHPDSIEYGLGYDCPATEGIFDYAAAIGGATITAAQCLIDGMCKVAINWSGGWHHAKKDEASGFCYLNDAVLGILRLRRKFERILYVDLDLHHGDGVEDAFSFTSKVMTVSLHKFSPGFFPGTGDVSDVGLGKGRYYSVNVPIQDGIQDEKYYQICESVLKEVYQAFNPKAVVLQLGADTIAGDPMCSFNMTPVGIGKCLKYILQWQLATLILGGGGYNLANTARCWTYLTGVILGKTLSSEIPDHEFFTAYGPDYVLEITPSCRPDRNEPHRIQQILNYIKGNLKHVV

B16-F10 [3] = test: cells; details: Mus musculus, B16-F10, 48 h
HepG2 = test: cells; details: Homo sapiens, HepG2, 48 h
MCF7 = test: cells; details: Homo sapiens, MCF7, 48 h
Jurkat [4] = test: cells; details: Homo sapiens, 72 h
Jurkat [5] = test: Upregulation of acetylated histone H3 protein level in human Jurkat T cells at 0.1 to 2 uM incubated for 12 hrs by Western blot analysis; format: functional, cell-based; details: dose 0.1-2 µM
B16-F10 [6] = test: Upregulation of acetylated histone H3 protein level in mouse B16-F10 cells at 0.1 to 2 uM incubated for 12 hrs by Western blot analysis; format: functional, cell-based; details: dose 0.1-2 µM
[7] = target: T3, Protein deacetylase HDAC6 (Mus musculus) (UniProt Q9Z2V5); test: Inhibition of HDAC6 in mouse B16-F10 cells assessed as increase in acetylated alpha-tubulin level incubated for 12 hrs by Western blot analysis; format: cell-based; details: dose 0.1-2 µM
T3 sequence (whole entry): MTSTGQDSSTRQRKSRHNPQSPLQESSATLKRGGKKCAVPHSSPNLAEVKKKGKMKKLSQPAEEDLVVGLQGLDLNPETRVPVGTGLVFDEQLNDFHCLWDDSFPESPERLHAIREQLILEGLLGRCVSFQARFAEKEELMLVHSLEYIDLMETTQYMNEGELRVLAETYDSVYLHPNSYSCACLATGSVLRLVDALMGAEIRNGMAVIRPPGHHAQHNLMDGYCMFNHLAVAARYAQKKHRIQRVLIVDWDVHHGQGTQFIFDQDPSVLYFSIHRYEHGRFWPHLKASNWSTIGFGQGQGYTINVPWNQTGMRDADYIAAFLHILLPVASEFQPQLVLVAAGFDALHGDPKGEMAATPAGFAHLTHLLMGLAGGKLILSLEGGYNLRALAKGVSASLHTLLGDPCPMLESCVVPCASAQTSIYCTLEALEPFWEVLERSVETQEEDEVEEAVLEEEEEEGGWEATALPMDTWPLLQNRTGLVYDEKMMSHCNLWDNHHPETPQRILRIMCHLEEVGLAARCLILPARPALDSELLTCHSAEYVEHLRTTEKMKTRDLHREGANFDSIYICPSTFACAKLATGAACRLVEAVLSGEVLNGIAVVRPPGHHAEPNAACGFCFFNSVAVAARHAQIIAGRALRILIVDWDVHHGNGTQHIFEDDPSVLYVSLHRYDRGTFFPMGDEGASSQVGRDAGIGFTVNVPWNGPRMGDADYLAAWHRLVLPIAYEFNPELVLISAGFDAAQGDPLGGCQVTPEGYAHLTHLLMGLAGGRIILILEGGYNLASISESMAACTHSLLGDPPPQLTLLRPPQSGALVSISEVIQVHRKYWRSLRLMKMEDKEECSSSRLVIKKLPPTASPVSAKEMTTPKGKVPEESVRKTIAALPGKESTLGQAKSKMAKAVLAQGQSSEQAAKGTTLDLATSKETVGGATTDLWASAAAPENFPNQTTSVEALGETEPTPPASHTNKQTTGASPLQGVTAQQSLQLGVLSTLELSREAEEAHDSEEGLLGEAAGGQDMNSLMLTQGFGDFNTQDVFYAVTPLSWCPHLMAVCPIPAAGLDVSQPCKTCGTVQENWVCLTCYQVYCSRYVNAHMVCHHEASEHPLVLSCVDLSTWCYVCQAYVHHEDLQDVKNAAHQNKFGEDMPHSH

Jurkat [8] = test: Effect on HDAC6 protein level in human Jurkat T cells at 0.1 to 2 uM incubated for 12 hrs by Western blot analysis; format: functional, cell-based; details: dose 0.1-2 µM
B16-F10 [9] = test: Effect on HDAC6 protein level in mouse B16-F10 cells at 0.1 to 2 uM incubated for 12 hrs by Western blot analysis; format: functional, cell-based; details: dose 0.1-2 µM
B16-F10 [10] = test: Downregulation of p-STAT3 expression level in mouse B16-F10 cells at 0.1 to 2 uM incubated for 24 hrs by Western blot analysis; format: functional, cell-based; details: dose 0.1-2 µM
B16-F10 [11] = test: Downregulation of PD-L1 expression level in mouse B16-F10 cells at 0.1 to 2 uM incubated for 24 hrs by Western blot analysis; format: functional, cell-based; details: dose 0.1-2 µM
B16-F10 [12] = test: Effect on STAT3 expression level in mouse B16-F10 cells at 0.1 to 2 uM incubated for 24 hrs by Western blot analysis; format: functional, cell-based; details: dose 0.1-2 µM
B16-F10 [13] = test: Antitumor activity against mouse B16-F10 cells implanted in C57BL/6 mouse model assessed as tumor growth inhibition at 20 mg/kg/day, ip administered for 14 days relative to control; format: functional; details: B16-F10, 336 h, time 14 day, read-out: TGI
[14] = In vivo inhibition of PD-L1 in C57BL/6 mouse model implanted with mouse B16-F10 cells assessed as reduction in PD-L1 protein expression in tumor at 20 mg/kg/day, ip administered for 14 days by Western blot analysis relative to control; format: functional; details: C57BL/6, B16-F10, 336 h, time 14 day
B16-F10 [15] = test: Antitumor immunity activity against mouse B16-F10 cells implanted in C57BL/6 mouse model assessed as CD3+ CD4+ T cell percentage in tumor at 20 mg/kg/day, ip administered for 14 days by flow cytometric analysis (reference value: 0.095 %); format: functional; details: time 14 day
[16] = target: T3, Protein deacetylase HDAC6 (Mus musculus); test: In vivo inhibition of HDAC6 in C57BL/6 mouse model implanted with mouse B16-F10 cells assessed as increase in acetylated alpha-tubulin protein level in tumor at 20 mg/kg/day, ip administered for 14 days by Western blot analysis; format: functional, organism-based; details: time 14.0 day
B16-F10 [17] = test: Antitumor immunity activity against mouse B16-F10 cells implanted in C57BL/6 mouse model assessed as CD3+ CD8+ T cell percentage in tumor at 20 mg/kg/day, ip administered for 14 days by flow cytometric analysis (reference value: 0.52 %); format: functional; details: time 14 day

Chain of Programmed cell death protein 1/Programmed cell death 1 ligand 1 (Q15116 whole entry, the tested form may be a part): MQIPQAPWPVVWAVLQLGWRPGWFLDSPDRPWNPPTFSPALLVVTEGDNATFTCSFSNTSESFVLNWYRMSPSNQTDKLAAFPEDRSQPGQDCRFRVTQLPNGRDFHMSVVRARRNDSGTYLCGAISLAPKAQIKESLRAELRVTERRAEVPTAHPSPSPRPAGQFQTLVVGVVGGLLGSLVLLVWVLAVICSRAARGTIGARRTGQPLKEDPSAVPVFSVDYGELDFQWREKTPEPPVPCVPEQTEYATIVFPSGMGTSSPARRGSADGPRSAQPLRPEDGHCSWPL
Chain of Programmed cell death protein 1/Programmed cell death 1 ligand 1 (Q9NZQ7 whole entry, the tested form may be a part): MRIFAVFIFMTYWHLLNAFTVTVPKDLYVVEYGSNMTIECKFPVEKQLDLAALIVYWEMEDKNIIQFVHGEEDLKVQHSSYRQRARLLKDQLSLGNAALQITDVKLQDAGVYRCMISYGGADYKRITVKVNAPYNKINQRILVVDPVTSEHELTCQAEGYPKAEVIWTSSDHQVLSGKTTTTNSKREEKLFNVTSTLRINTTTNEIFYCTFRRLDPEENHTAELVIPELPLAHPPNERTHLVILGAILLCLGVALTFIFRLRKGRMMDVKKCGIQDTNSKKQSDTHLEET
Chain of Histone deacetylase 1 (Q13547 whole entry, the tested form may be a part): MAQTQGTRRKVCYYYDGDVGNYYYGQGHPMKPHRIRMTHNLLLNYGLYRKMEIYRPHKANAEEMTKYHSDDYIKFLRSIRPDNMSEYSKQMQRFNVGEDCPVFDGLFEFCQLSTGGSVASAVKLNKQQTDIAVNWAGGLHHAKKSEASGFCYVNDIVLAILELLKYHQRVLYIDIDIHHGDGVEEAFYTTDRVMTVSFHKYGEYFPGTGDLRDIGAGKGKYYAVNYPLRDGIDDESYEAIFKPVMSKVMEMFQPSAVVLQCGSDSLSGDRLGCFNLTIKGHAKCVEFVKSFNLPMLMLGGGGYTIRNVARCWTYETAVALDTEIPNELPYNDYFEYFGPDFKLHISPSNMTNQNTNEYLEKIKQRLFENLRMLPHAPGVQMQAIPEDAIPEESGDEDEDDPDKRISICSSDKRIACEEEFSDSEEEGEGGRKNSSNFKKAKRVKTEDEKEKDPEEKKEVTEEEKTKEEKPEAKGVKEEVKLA

Structure (SMILES)	IC50 (Histone deacetylase 7) [µM]	IC50 (Histone deacetylase 8) [µM]	IC50 (B16-F10 [3]) [µM]	IC50 (HepG2) [µM]	IC50 (MCF7) [µM]	IC50 (Jurkat [4]) [µM]	inhibition [16]	IC50 [2] [µM]	inhibition in vivo at 20 mg/kg/day (B16-F10 [13]) [%]	inhibition in vivo at 20 mg/kg/day [14] [%]	Activity (B16-F10 [15]) [%]	Activity (B16-F10 [17]) [%]	further results
COc1nc(OCc2cccc(-c3ccccc3)c2C)ccc1CNCCNC(C)=O													solubility thermodynamic at 24 h [1]: 38.3 µg/mL (≈ 91.3 µM)
O=C(CCCCCCC(=O)Nc1ccccc1)NO													Activity (Jurkat [5]): Active; Activity (B16-F10 [6]): Active
O=C(CCCCCCNC(=O)c1cnc(N(c2ccccc2)c2ccccc2)nc1)NO [RICOLINOSTAT]			> 10	7.9	8.3	6.7	Active		45.6	~30	2.62	1.04	inhibition [7]: Dose-dependent-effect; Activity (Jurkat [8]): inactive; Activity (B16-F10 [9]): inactive; Activity (B16-F10 [10]): Active; Activity (B16-F10 [11]): Active; Activity (B16-F10 [12]): inactive
Cc1c(COc2cc(OCc3cccc(C#N)c3)c(CNC(C)(C)C(=O)O)cc2Cl)cccc1-c1ccccc1							inactive		43.2	~50	3.41	4.99	

More lines, main results first:

IC50 (Histone deacetylase 7) [µM]	IC50 (Histone deacetylase 8) [µM]	IC50 (B16-F10 [3]) [µM]	IC50 (HepG2) [µM]	IC50 (MCF7) [µM]	IC50 (Jurkat [4]) [µM]	inhibition [16]	Structure (SMILES)	IC50 [2] [µM]	inhibition in vivo at 20 mg/kg/day (B16-F10 [13]) [%]	inhibition in vivo at 20 mg/kg/day [14] [%]	Activity (B16-F10 [15]) [%]	Activity (B16-F10 [17]) [%]	further results
> 100	> 10	> 10	9.7	> 10	> 10		COc1nc(OCc2cccc(-c3ccccc3)c2C)ccc1CNCCCCC(=O)NO	0.1					IC50 (Histone deacetylase 1): > 10 µM
> 100	> 10	> 10	> 10	> 10	> 10		COc1nc(OCc2cccc(-c3ccccc3)c2C)ccc1CNCCCCCCC(=O)NO	0.0592					
